Results: patent publication US4314988A, “Folic acid derivatives and process for preparation” (Baker Instruments Corp., priority 1979, dated 1982)
Blank lines part the entries; values can stand above or below the molecule they belong to.

Tests used:
whole milk folate binder = whole milk folate binder (Bos taurus, UniProt P02702); assay: Competitive protein binding (CPB) radioassay for folates using pteroyltyrosine [125I] as radiolabel; conditions: for coincidence of dose response curves generated using pteroyltyrosine [125I] as label: high pH versus lower pH
Chain of whole milk folate binder (P02702 20-234): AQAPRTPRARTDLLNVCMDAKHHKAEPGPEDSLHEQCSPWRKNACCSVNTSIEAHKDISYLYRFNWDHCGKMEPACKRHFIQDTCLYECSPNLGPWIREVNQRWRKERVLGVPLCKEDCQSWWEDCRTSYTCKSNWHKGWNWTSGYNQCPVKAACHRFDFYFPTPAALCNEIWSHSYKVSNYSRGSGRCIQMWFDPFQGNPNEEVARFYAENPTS
Description: The use of the Centria® analytical system, Union Carbide Corporation, in this example, is meant to be illustrative and other methods, both automated and manual, obvious to those skilled in the clinical diagnostic art are also within the scope of this invention.
Briefly, the Centria® system is a tri-modular instrument in which reagents are pipetted on to a multiwell transfer disk and mixed centrifugally with standards or patients' samples. After a suitable incubation period, the components are separated by a centrifugal elution of the bound and free fractions and the bound fractions counted three at a time.
Folic acid and N^5 -methyltetrahydrofolic acid standards in the range 0-20 nanograms/milliliter were prepared in 0.05 M sodium borate, pH 9.3 containing 0.1% human serum albumin. The whole milk binder was prepared according to the method of Rothenberg et al., (3) and dissolved in sodium borate, pH 9.3 containing 0.1% human serum albumin.
(50 microliters, 20,000 cpm) plus 85 microliters of water with the limited number of binding sites contained in a 200 microliter solution of whole milk folate binder. The binding reactions may be shown as follows:
A gamma counter which counts three of the 36 positions at a time for one minute, so constructed that only the eluate bottom portion of the test tubes fits into the counter, was then used to count all samples. Sequential counting of the tubes thus required about 12 minutes. A small computer with printout capability then printed out the data after completion of the cycle.

carboxypeptidase A = assay: Enzymatic hydrolysis of pteroyltyrosine followed spectrophotometrically (uv); format: biochemical; conditions: 0.025 M Tris-HCl, 2 mM zinc chloride, pH 7.3, two hours at ambient temperature
Description: Two milliliters of a solution of pteroyltrosine (0.75 mmoles/ml) in 0.025 M Tris-HCl containing 2 mM zinc chloride, pH 7.3 were diluted to 10 ml with distilled water. A portion of this solution (2 ml) was placed in a 1 cm cuvette and in another was placed 2 ml of distilled water. To each of the cuvettes was added 50 μl of a solution of 100 μl carboxypeptidase A suspension (Aldrich chemical, lot 060637) diluted with 0.9 ml of 10% lithium chloride.
The time course of the reaction was followed spectrophotometrically (uv) over a period of two hours at ambient temperature. An increase and shift in max from 280 to 277 nm and a marked decrease in absorption at 220 nm was observed. Two isosbestic points at 242 and 282 nm were visible.

[1] = Storage stability of the radioiodinated product, judged by assay performance; format: physicochemical; conditions: stored in a 50% aqueous propylene glycol solution, ten-week period
Excerpt: Radioiodination of biological compounds frequently leads to marked chemical instability and subsequent degradation of the radiolabel. This problem is often accentuated in the radiolabel when the materials to be radioiodinated are known to be sensitive to oxygen, light or extremes in pH, as is the case with folic acid and some derivatives.
The reaction mixture was applied to a 1×20 cm Sephadex G25, fine, (Pharmacia Fine Chemicals, Uppsala, Sweden) column hydrated with distilled water and equilibrated with 0.1 M potassium phosphate, pH 7.5. The column was eluted with 0.1 M potassium phosphate buffer and 3 ml fractions collected. The product "peak" fractions 32-34 were collected, diluted 1:1 with propylene glycol and stored below 0° C.

Compound: Nc1nc2ncc(CNc3ccc(C(=O)N[C@@H](CCC(=O)O)C(=O)O)cc3)nc2c(=O)[nH]1 [folic acid, pteroylglutamic acid]
coincidence of dose response curves generated using pteroyltyrosine [125I] as label (whole milk folate binder): more nearly coincident than at lower pH

Compound: CN1c2c(O)nc(N)nc2NCC1CNc1ccc(C(=O)N[C@@H](CCC(=O)O)C(=O)O)cc1 (some centres unmarked) [N^5 -methyl THF, N-5-methyltetrahydrofolic acid]
coincidence of dose response curves generated using pteroyltyrosine [125I] as label (whole milk folate binder): more nearly coincident than at lower pH

final uv spectrum after treatment with carboxypeptidase A (carboxypeptidase A): very similar to that of pteroic acid
Compound: Nc1nc2ncc(CNc3ccc(C(=O)N[C@@H](Cc4ccc(O)cc4)C(=O)O)cc3)nc2c(=O)[nH]1 [Pteroyltyrosine, Pteroyl-L-Tyrosine]

Compound: Nc1nc(O)c2nc(CNc3ccc(C(=O)N[C@@H](Cc4ccc(O)c([125I])c4)C(=O)O)cc3)cnc2n1 [pteroyltyrosine [^125 I]]
deterioration in assay performance on storage [1]: no deterioration in assay performance over a ten-week period
performance as radiolabel in CPB radioassay for folic acid (whole milk folate binder; folic acid concentration range 0-20 ng/ml): effective radiolabel in a sensitive CPB radioassay for folic acid
